Assay results published in ChEMBL document CHEMBL4219252, “Synthesis, antimycobacterial activity and influence on mycobacterial InhA and PknB of 12-membered cyclodepsipeptides” (Bioorg Med Chem, 2018).
≈ marks a conversion by molar mass, not a printed value. Calls of active or inactive are those of the source. No cut-off for these calls is given here.

Columns and labels:
[1] = tested on: Escherichia coli; experiment: Antibacterial activity against Escherichia coli SG458 incubated overnight at 37 degC measured after 24 hrs by agar diffusion method; assay type: functional, organism-based
[2] = tested on: Sporobolomyces salmonicolor; experiment: Antifungal activity against Sporobolomyces salmonicolor 549 incubated overnight at 30 degC measured after 24 hrs by agar diffusion method; assay type: functional, organism-based
[3] = tested on: Bacillus spizizenii; experiment: Antibacterial activity against Bacillus subtilis ATCC 6633 incubated overnight at 37 degC measured after 24 hrs by agar diffusion method; assay type: functional, organism-based
[4] = Antiproliferative activity against human K562 cells after 72 hrs by CellTiter-Blue1 assay; assay type: cell-based
[5] = tested on: Mycobacterium tuberculosis; experiment: Antimycobacterial activity against Mycobacterium tuberculosis H37Rv after 7 days by BacTiter-Glo microbial cell viability assay; assay type: functional
[6] = tested on: Mycolicibacterium smegmatis; experiment: Antimycobacterial activity against Mycobacterium smegmatis SG987 after 48 hrs by resazurin microtiter assay; assay type: functional
[7] = tested on: Mycolicibacterium aurum; experiment: Antimycobacterial activity against Mycobacterium aurum SB66 incubated overnight at 37 degC measured after 24 hrs by agar diffusion method; assay type: functional
[8] = tested on: Mycolicibacterium smegmatis; experiment: Antimycobacterial activity against Mycobacterium smegmatis SG987 incubated overnight at 37 degC measured after 24 hrs by agar diffusion method; assay type: functional
[9] = tested on: Mycolicibacterium vaccae; experiment: Antimycobacterial activity against Mycobacterium vaccae IMET 10670 incubated overnight at 37 degC measured after 24 hrs by agar diffusion method; assay type: functional
[10] = Antiproliferative activity against HUVEC after 72 hrs by CellTiter-Blue1 assay; assay type: cell-based; conditions: human
[11] = Cytotoxicity against human HeLa cells assessed as reduction in cell viability after 72 hrs by CellTiter-Blue1 assay; assay type: cell-based
[12] = target: T1, Serine/threonine-protein kinase PknB (Mycobacterium tuberculosis) (UniProt P9WI81); experiment: Inhibition of Mycobacterium tuberculosis GST-tagged PknB expressed in Escherichia coli assessed as reduction in PknB autophosphorylation at 4.8 uM preincubated for 30 mins followed by [gamma32P]ATP addition measured after 30 mins by scintillation counting method relative to control
T1 sequence (whole entry): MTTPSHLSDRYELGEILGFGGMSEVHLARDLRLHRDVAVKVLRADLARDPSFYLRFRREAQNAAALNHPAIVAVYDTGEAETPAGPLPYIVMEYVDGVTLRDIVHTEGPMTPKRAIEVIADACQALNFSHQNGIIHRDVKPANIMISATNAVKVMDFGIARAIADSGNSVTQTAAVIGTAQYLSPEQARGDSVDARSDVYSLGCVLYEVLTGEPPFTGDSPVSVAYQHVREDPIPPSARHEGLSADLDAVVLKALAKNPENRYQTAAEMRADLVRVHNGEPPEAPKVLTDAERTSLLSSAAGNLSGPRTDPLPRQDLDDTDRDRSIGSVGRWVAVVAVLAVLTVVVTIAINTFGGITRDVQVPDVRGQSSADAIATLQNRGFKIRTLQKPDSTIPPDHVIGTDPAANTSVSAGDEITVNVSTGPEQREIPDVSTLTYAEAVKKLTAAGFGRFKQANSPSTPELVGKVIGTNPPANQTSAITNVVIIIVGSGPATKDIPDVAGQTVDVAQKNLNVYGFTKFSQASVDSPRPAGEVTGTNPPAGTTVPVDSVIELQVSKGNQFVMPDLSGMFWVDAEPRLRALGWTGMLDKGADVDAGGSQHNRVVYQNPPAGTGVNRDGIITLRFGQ

[13] = target: T1, Serine/threonine-protein kinase PknB (Mycobacterium tuberculosis); experiment: Inhibition of Mycobacterium tuberculosis GST-tagged PknB expressed in Escherichia coli assessed as reduction in PknB autophosphorylation at 0.24 to 4.8 uM preincubated for 30 mins followed by [gamma32P]ATP addition measured after 30 mins by scintillation counting method
[14] = target: T1, Serine/threonine-protein kinase PknB (Mycobacterium tuberculosis); experiment: Induction of Mycobacterium tuberculosis GST-tagged PknB autophosphorylation expressed in Escherichia coli at 4.8 uM preincubated for 30 mins followed by [gamma32P]ATP addition measured after 30 mins by scintillation counting method relative to control
[15] = tested on: Mycobacterium tuberculosis; experiment: Antimycobacterial activity against Mycobacterium tuberculosis H37Rv ATCC 27294 by microplate alamar blue assay; assay type: functional
[16] = Mycobacterium tuberculosis, H37Rv, 168 h, read-out: MIC
[17] = Mycolicibacterium smegmatis, SG987, 48 h, read-out: MIC

C[C@H]1OC(=O)CCCNC(=O)[C@@H](NC(=O)c2ccccn2)[C@@H](C)OC1=O
Activity [1]: inactive
Activity [2]: inactive
Activity [3]: inactive

C[C@H]1OC(=O)COC(=O)CCC(Cc2ccccc2)NC(=O)[C@H]1NC(=O)OC(C)(C)C (stereo in doubt; form 2) [listing 1 of 2 here]
GI50 at 72 h [4]: 5 to 50 µg/mL (≈ 11.5 to 115 µM)
MIC [5, 16]: 4 µM (≈ 1.74 µg/mL)
MIC [6]: 7.2 µM (≈ 3.13 µg/mL)
diameter of the inhibition zone (DIZ) [7]: 0 mm
diameter of the inhibition zone (DIZ) [8]: 21 mm
diameter of the inhibition zone (DIZ) [9]: 24 - 31 mm
GI50 at 72 h [10]: 5 to 50 µg/mL (≈ 11.5 to 115 µM)
CC50 at 72 h [11]: 5 to 50 µg/mL (≈ 11.5 to 115 µM)

C[C@H]1OC(=O)COC(=O)CCC(Cc2ccccc2)NC(=O)[C@H]1NC(=O)OC(C)(C)C (stereo in doubt; form 1) [listing 1 of 2 here]
inhibition [12]: 60%
Activity [1]: inactive
Activity [2]: inactive
Activity [3]: inactive

C[C@@H](O)C(=O)O[C@H](C)[C@H](NC(=O)OC(C)(C)C)C(=O)NC(CCC(=O)O)Cc1ccccc1 (stereo partly drawn)
Activity [5]: inactive
Activity [6]: inactive

C[C@H]1OC(=O)COC(=O)CCCNC(=O)[C@H]1NC(=O)c1ncccc1O
Activity [1]: inactive
Activity [2]: inactive
Activity [3]: inactive

C[C@H]1OC(=O)COC(=O)CCC(Cc2ccccc2)NC(=O)[C@H]1NC(=O)OC(C)(C)C (stereo in doubt; form 1) [listing 2 of 2 here]
MIC [5]: 8 µM (≈ 3.48 µg/mL)
MIC [6]: 28.8 µM (≈ 12.5 µg/mL)
diameter of the inhibition zone (DIZ) [8]: 17 mm
diameter of the inhibition zone (DIZ) [9]: 20 - 26 mm

C[C@H]1OC(=O)COC(=O)CCC(Cc2ccccc2)NC(=O)[C@H]1NC(=O)OC(C)(C)C (stereo in doubt; form 2) [listing 2 of 2 here]
inhibition [12]: 60%
Activity [1]: inactive
Activity [2]: inactive
Activity [3]: inactive

CC/C(C)=C1\OC(=O)[C@H](C)[C@@H](O)[C@H](Cc2cccnc2)NC(=O)[C@@H](NC(=O)c2ncccc2O)[C@@H](C)OC1=O
inhibition [13]: inactive

C[C@@H](OCc1ccccc1)C(=O)O[C@H](C)[C@H](NC(=O)c1ncccc1O)C(=O)NCCCC(=O)OCc1ccccc1
Activity [1]: inactive
Activity [2]: inactive
Activity [3]: inactive

C[C@@H](OCc1ccccc1)C(=O)O[C@H](C)[C@H](NC(=O)c1ccccc1O)C(=O)NCCCC(=O)OCc1ccccc1
Activity [1]: inactive
Activity [2]: inactive
Activity [3]: inactive

COC(=O)CCC(Cc1ccccc1)NC(=O)[C@@H](NC(=O)OC(C)(C)C)[C@@H](C)OC(=O)[C@@H](C)O (stereo partly drawn)
Activity [1]: inactive
Activity [8]: inactive
Activity [9]: inactive
Activity [2]: inactive
inhibition [13]: inactive
Activity [3]: inactive

C[C@H]1OC(=O)CCC(Cc2ccccc2)NC(=O)[C@@H](NC(=O)OC(C)(C)C)[C@@H](C)OC1=O (stereo in doubt; form 2) [listing 1 of 2 here]
MIC [5, 16]: 125 µM (≈ 56.1 µg/mL)
diameter of the inhibition zone (DIZ) [7]: 0 mm
diameter of the inhibition zone (DIZ) [8]: 0 mm
diameter of the inhibition zone (DIZ) [9]: 0 mm

C[C@@H](OC(=O)COCc1ccccc1)[C@H](NC(=O)c1ccccc1O)C(=O)NCCCC(=O)OCc1ccccc1
Activity [1]: inactive
Activity [2]: inactive
Activity [3]: inactive

NNC(=O)c1ccncc1 [ISONIAZID]
MIC [5, 16]: 0.31 µM (≈ 0.0425 µg/mL)
MIC [6, 17]: 29.2 µM (≈ 4 µg/mL)

C[C@H]1OC(=O)CCC(Cc2ccccc2)NC(=O)[C@@H](NC(=O)OC(C)(C)C)[C@@H](C)OC1=O (stereo in doubt; form 2) [listing 2 of 2 here]
Activity [14]: 60%
fold change (FC) [14]: 2
Activity [1]: inactive
Activity [2]: inactive
inhibition [13]: inactive
Activity [3]: inactive

C[C@H]1OC(=O)COC(=O)CCCNC(=O)[C@H]1NC(=O)c1ccccn1
Activity [1]: inactive
Activity [2]: inactive
Activity [3]: inactive

C[C@H]1OC(=O)CCC(Cc2ccccc2)NC(=O)[C@@H](NC(=O)c2ncccc2O)[C@@H](C)OC1=O (stereo partly drawn)
GI50 at 72 h [4]: > 5 µg/mL
inhibition [12]: 35%
Activity [1]: inactive
MIC [5, 16]: 8 µM (≈ 3.76 µg/mL)
MIC [6, 17]: 13.7 µM (≈ 6.43 µg/mL)
diameter of the inhibition zone (DIZ) [7]: 0 mm
diameter of the inhibition zone (DIZ) [8]: 17 mm
diameter of the inhibition zone (DIZ) [9]: 21 - 29 mm
GI50 at 72 h [10]: > 5 µg/mL
CC50 at 72 h [11]: > 5 µg/mL
Activity [2]: inactive
Activity [3]: inactive

C[C@H]1OC(=O)CCC(Cc2ccccc2)NC(=O)[C@@H](NC(=O)OC(C)(C)C)[C@@H](C)OC1=O (stereo in doubt; form 1)
Activity [1]: inactive
Activity [2]: inactive
Activity [3]: inactive

C[C@@H](OC(=O)COCc1ccccc1)[C@H](NC(=O)c1ncccc1F)C(=O)NCCCC(=O)OCc1ccccc1
Activity [1]: inactive
Activity [2]: inactive
Activity [3]: inactive

CC[C@H](C)[C@@H]1NC(=O)C[C@H](CC(C)C)CNC(=O)[C@@H](NC(=O)c2ccccn2)[C@@H](C)OC1=O
Activity [1]: inactive
Activity [5]: inactive
Activity [6]: inactive
Activity [2]: inactive
Activity [3]: inactive

C[C@@H](OC(=O)COCc1ccccc1)[C@H](NC(=O)c1ncccc1O)C(=O)NCCCC(=O)OCc1ccccc1
Activity [1]: inactive
Activity [2]: inactive
Activity [3]: inactive

COC(=O)/C=C/C(=O)c1ccc(OC)cc1
MIC [15]: 1.14 µM (≈ 0.251 µg/mL)

C[C@@H](OC(=O)COCc1ccccc1)[C@H](NC(=O)c1ccccn1)C(=O)NCCCC(=O)OCc1ccccc1
Activity [1]: inactive
Activity [2]: inactive
Activity [3]: inactive

C[C@@H](OCc1ccccc1)C(=O)O[C@H](C)[C@H](NC(=O)c1ncccc1F)C(=O)NCCCC(=O)OCc1ccccc1
Activity [1]: inactive
Activity [2]: inactive
Activity [3]: inactive

C[C@H]1OC(=O)CCCNC(=O)[C@@H](NC(=O)c2ncccc2O)[C@@H](C)OC1=O
Activity [1]: inactive
Activity [2]: inactive
Activity [3]: inactive

C[C@@H](OCc1ccccc1)C(=O)O[C@H](C)[C@H](NC(=O)c1ccccn1)C(=O)NCCCC(=O)OCc1ccccc1
Activity [1]: inactive
Activity [2]: inactive
Activity [3]: inactive

C[C@H]1OC(=O)c2ccccc2OC(=O)CCNC(=O)[C@H]1NC(=O)OC(C)(C)C
Activity [1]: inactive
Activity [2]: inactive
Activity [3]: inactive

C[C@@H](OC(=O)CO)[C@H](NC(=O)OC(C)(C)C)C(=O)NC(CCC(=O)O)Cc1ccccc1 (stereo partly drawn)
Activity [5]: inactive
Activity [6]: inactive

C[C@H]1OC(=O)c2ccccc2OC(=O)CCNC(=O)[C@H]1NC(=O)c1ncccc1O
Activity [1]: inactive
Activity [5]: inactive
Activity [6]: inactive
Activity [2]: inactive
Activity [3]: inactive
